Values quoted from earlier work in US20160243040A1, “Pharmaceutical Composition with Antiinflammatory Agents and Production Process” (LABORATORIO RAAM DE SAHUAYO, S.A. DE C.V., priority 2013, published 2016).

What was measured:
[1] = relative potency, cortisol = 1
[2] = relative potency, cortisol = 1; remark: listed apart in the source
[3] = class by biological half-life
[4] = applies only to oral or intravenous use

Compound | Anti-inflammatory potency [1] | Potency to retain Na+ [2] | Duration of action [3] | Dose equivalents [4] | dose excreted in urine (mainly as aceclofenac glucuronide and diclofenac, and its hydroxy metabolites) | tmax in presence of food (oral, presence of food) | tmax without food (oral, without food) | elimination half-life (single dose of 100 mg)
C[C@H]1C[C@@H]2[C@H]([C@@H](O)C[C@@]3(C)[C@H]2CC[C@]3(O)C(=O)CO)[C@@]2(C)C=CC(=O)C=C12 [6α-methyl prednisolone] | 5 | 0.5 | I (I, intermediate (Biological half-life of 12-36 h)) | 4 mg | – | – | – | –
C[C@H]1C[C@H]2[C@@H]3CCC4=CC(=O)C=C[C@]4(C)[C@@]3(F)[C@@H](O)C[C@]2(C)[C@@]1(O)C(=O)CO [Betamethasone] | – | – | P (P, prolonged (Biological half-life of 36 to 72 h)) | – | – | – | – | –
C[C@]12CCC(=O)C=C1CC[C@@H]1[C@@H]2[C@@H](O)C[C@@]2(C)[C@H]1CC[C@]2(O)C(=O)CO [Cortisol] | 1 | 1 | B (B, short (Biological half-life of 8-12 h)) | 20 mg | – | – | – | –
C[C@]12CCC(=O)C=C1CC[C@@H]1[C@@H]2C(=O)C[C@@]2(C)[C@H]1CC[C@]2(O)C(=O)CO [Cortisone] | 0.8 | 0.8 | B (B, short (Biological half-life of 8-12 h)) | 25 mg | – | – | – | –
C[C@@H]1C[C@H]2[C@@H]3CCC4=CC(=O)C=C[C@]4(C)[C@@]3(F)[C@@H](O)C[C@]2(C)[C@@]1(O)C(=O)CO [Dexamethasone] | – | – | P (P, prolonged (Biological half-life of 36 to 72 h)) | – | – | – | – | –
C[C@]12CCC(=O)C=C1CC[C@H]1[C@@H]3CC[C@](O)(C(=O)CO)[C@@]3(C)C[C@H](O)[C@@]12F [Fludrocortisone] | – | – | I (I, intermediate (Biological half-life of 12-36 h)) | – | – | – | – | –
C[C@]12C=CC(=O)C=C1CC[C@@H]1[C@@H]2[C@@H](O)C[C@@]2(C)[C@H]1CC[C@]2(O)C(=O)CO [Prednisolone] | 4 | 0.8 | I (I, intermediate (Biological half-life of 12-36 h)) | 5 mg | – | – | – | –
C[C@]12C=CC(=O)C=C1CC[C@H]1[C@@H]3C[C@@H](O)[C@](O)(C(=O)CO)[C@@]3(C)C[C@H](O)[C@@]12F [Tiamcinolone] | 5 | 0 | I (I, intermediate (Biological half-life of 12-36 h)) | 4 mg | – | – | – | –
O=C(O)COC(=O)Cc1ccccc1Nc1c(Cl)cccc1Cl [aceclofenac, Aceclofenac] | – | – | – | – | Approximately 70% | 3.5 h | 2.0 h | 6.2 h
